# Test results as given in US20140336216A1, “PHYSIOLOGICAL LIGANDS FOR GPR139” (Janssen Pharmaceutica NV, priority 2013, published 2014).
# Several values for one entry are separate records, joined by “and”; a condition that tells them apart may be missing. Identical values can stand only once. Like-named read-outs stand apart in the source and are kept apart here.
# Columns and labels:
# mouse GPR139 = target: T1, mouse GPR139 (Mus musculus, UniProt Q80UC8); experiment: GTPγS binding dose response study, mouse GPR139 co-transfected with GO2Q into COS7 cells; type: biochemical; conditions: mouse GPR139, FIG. 2C and 2D
# T1 construct: expressed in transfected cells; host or cells: COS7 (membranes)
# T1 sequence (Q80UC8 1-345): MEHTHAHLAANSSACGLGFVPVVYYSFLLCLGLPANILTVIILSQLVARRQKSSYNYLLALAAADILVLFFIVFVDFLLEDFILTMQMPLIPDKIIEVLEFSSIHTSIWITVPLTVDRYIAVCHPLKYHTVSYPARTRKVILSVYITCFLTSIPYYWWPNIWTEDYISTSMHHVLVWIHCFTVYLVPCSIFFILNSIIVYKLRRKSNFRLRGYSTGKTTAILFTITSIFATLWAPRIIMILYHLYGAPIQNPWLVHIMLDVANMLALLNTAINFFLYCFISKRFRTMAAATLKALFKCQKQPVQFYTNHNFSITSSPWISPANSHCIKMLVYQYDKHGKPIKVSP
# Source text: (§1) FIG. 2-FIG. 2F: Tryptophan, phenylalanine, and their derivatives activate GPR139. Human (FIG. 2A and FIG. 2B) or mouse (FIG. 2C and FIG. 2D) GPR139 were co-transfected with chimeric G-protein GO2Q into COS7 cells. Cell membranes from transfected cells were used in GTPγS binding studies using various ligands at different concentrations to stimulate GPR139. FIG. 2E and FIG. 2F show control experiments in the dose response studies of Example 1.
# GPR139 [1] = target: T2, GPR139 (Homo sapiens, UniProt Q6DWJ6); experiment: GTPγS binding assay, single-concentration screen, COS7 membranes co-expressing GPR139 and GO2Q; type: biochemical; set-up: expressed in transfected cells; host or cells: COS7 (membranes); conditions: for Activation of GPR139 in the GTPγS binding assay: 1 mM; for Activation levels of GPR139 (GTPγS binding), GPR139-GO2Q: 1 mM final concentration, COS7 membranes co-expressing GPR139 and GO2Q, single wells of triplicate
# T2 sequence (Q6DWJ6 1-353): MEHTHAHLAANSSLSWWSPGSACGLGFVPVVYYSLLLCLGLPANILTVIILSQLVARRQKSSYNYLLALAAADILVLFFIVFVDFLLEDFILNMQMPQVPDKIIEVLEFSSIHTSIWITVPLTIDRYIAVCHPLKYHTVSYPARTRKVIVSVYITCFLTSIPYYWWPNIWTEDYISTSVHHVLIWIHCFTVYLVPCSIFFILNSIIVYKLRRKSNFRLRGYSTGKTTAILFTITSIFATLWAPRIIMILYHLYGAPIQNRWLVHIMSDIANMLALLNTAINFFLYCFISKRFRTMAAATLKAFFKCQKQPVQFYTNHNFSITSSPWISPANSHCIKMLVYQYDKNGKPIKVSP
# Protocol: (§2) In order identify the ligands for GPR139 two improvements in the detection assay were made to allow for the ligands to be detected. First, we chose to use a GTPγS binding assay instead of using live cultured cells. The GTPγS binding assay is a cell free system that uses the cell membrane of the cell(s) of interest rather than the live cell(s). One advantage of this assay is that potential ligands present in the cell culture media are washed away when the cell membrane is prepared. This reduces the basal level of signal and increase the chance of detecting receptor ligands when assessing compounds that activate the receptor. Second, a GO2Q chimeric G-protein was created to be co-expressed with GPR139 in order to increase the signal-to-noise ratio in the GTPγS binding assay. Historically, the Gi, Go coupled GPCRs offer much greater signal-to-noise ratio in GTPγS binding studies. For Gs and Gq coupled GPCRs, although ligand-stimulated specific signals can be detected in a GTPγS binding assay, the signal-to-noise ratios are often very small. To address this a chimeric GO2-Gq chimeric G-protein, GO2Q, with the N-terminus from Go2 protein and the C-terminus from Gq protein.
# (§3) To test for compounds that activate GPR139, different amino acids and their derivatives (Table 2) were tested as ligands in the GTPγS binding assay using cell membranes from COS7 cells co-expressing GPR139 and GO2Q. Cell membrane from COS7 cells expressing GO2Q alone or co-expressing other GPCRs were also tested in GTPγS binding assay in parallel as controls. Each compound was tested in triplicate.
# GPR139 [2] = target: T2, GPR139; experiment: GTPγS binding dose response study, human GPR139 co-transfected with GO2Q into COS7 cells; type: biochemical; set-up: expressed in transfected cells; host or cells: COS7 (membranes); conditions: human GPR139, FIG. 2A and 2B
# Source text: as §1
# GO2Q alone = experiment: GTPγS binding assay, control COS7 membranes expressing GO2Q alone (Ct-GO2Q); type: biochemical
# Protocol: as §2, §3
# GPR139 [3] = target: T2, GPR139; experiment: Calcium mobilization assay (FLIPR), GPR139 expressed in HEK293 cells; type: cell-based; set-up: expressed in transfected cells; host or cells: HEK293 (transient); conditions: similar to GTPγS binding studies
# Protocol: FIG. 3A and FIG. 3B: Provides the results of experiments conducted to determine whether Trp and its derivatives (FIG. 3A) and Phe and its derivatives (FIG. 3B) stimulate Ca^2+ mobilization in HEK293 cells expressing GPR139.
# The active compounds were also tested in a calcium mobilization assay (FLIPR® assay). For these experiments human GPR139 was transiently expressed in HEK293 cells and calcium mobilization was stimulated using L-Trp, L-Phe or their derivatives. […] The concentrations of L-Trp and L-Phe in many cell culture media (for instance DMEM is about 80 μM and 750 μM respectively) are close to the EC50 values of L-Trp and L-Phe for GPR139. […] This may explain why GPR139 appeared constitutively active when recombinantly expressed in mammalian cells.
# About 300 additional phenylalanine analogues have been tested for GPR139 activation using a calcium mobilization (FLIPR®) assay. The results of these experiments indicate that many of these analogues can also activate GPR139. Table 4 lists certain phenylalanine analogues that have been determined to activate GPR139 by calcium mobilization at a concentration of 300 μM (calcium mobilization is expressed as percentage of that observed for L-phenylalanine).
# [4] = 1 mM final concentration, COS7 membranes expressing GO2Q alone, single wells of triplicate
Structure (SMILES),"Activation levels of GPR139 (GTPγS binding), GPR139-GO2Q (GPR139 [1])","Activation levels (GTPγS binding), Ct-GO2Q (GO2Q alone; [4])",also measured
"NCCc1ccccc1 [b-phenylethylamine, β-phenylethylamine]",6705 and 7099 and 6634,2334 and 2065 and 2024,Dose-responsive activation of GPR139 (GTPγS binding) (mouse GPR139): specifically activate GPR139 in a dose-responsive manner; Activation of GPR139 in the GTPγS binding assay (GPR139 [1]): activated GPR139; Dose-responsive activation of GPR139 (GTPγS binding) (GPR139 [2]): specifically activate GPR139 in a dose-responsive manner
"N[C@H](Cc1c[nH]c2ccccc12)C(=O)O [D-Trp, D-tryptophan]",–,–,Dose-responsive activation of GPR139 (GTPγS binding) (mouse GPR139): specifically activate GPR139 in a dose-responsive manner; Dose-responsive activation of GPR139 (GTPγS binding) (GPR139 [2]): specifically activate GPR139 in a dose-responsive manner
"N[C@H](Cc1ccccc1)C(=O)O [D-Phe, D-phenylalanine]",–,–,Dose-responsive activation of GPR139 (GTPγS binding) (mouse GPR139): specifically activate GPR139 in a dose-responsive manner; Dose-responsive activation of GPR139 (GTPγS binding) (GPR139 [2]): specifically activate GPR139 in a dose-responsive manner
C[C@H](N)C(=O)O [Ala],2363 and 2348 and 2439,1903 and 2049 and 2139,–
NC(=O)CC[C@H](N)C(=O)O [Gln],2583 and 2525 and 2766,2181 and 2327 and 2336,–
NCCc1c[nH]c2ccc(O)cc12 [Seretonin],2839 and 2852 and 2920,2356 and 2154 and 2332,–
N=C(N)NCCC[C@H](N)C(=O)O [Arg],2806 and 2783 and 2528,–,"Activation levels (GTPγS binding), Ct-GO2Q (GO2Q alone): 2171 and 2131 and 2255"
NCCCC[C@H](N)C(=O)O [Lys],2433 and 2617 and 2589,2400 and 2138 and 2041,–
CSCC[C@H](N)C(=O)O [Met],2657 and 2829 and 2802,2173 and 2307 and 2276,–
N[C@@H](CO)C(=O)O [Ser],2605 and 2458 and 2545,1975 and 2036 and 2164,–
"Cn1cc(C[C@@H](N)C(=O)O)c2ccccc21 [1-methy-D-Try, 1-methyl-D-Trp]",–,–,Dose-responsive activation of GPR139 (GTPγS binding) (mouse GPR139): specifically activate GPR139 in a dose-responsive manner; Dose-responsive activation of GPR139 (GTPγS binding) (GPR139 [2]): specifically activate GPR139 in a dose-responsive manner; Potency in calcium mobilization relative to L-Trp and L-Phe (GPR139 [3]): higher potencies
"Cn1cc(C[C@H](N)C(=O)O)c2ccccc21 [1-methy-L-Trp, 1-methyl-L-Trp]",–,–,Dose-responsive activation of GPR139 (GTPγS binding) (mouse GPR139): specifically activate GPR139 in a dose-responsive manner; Dose-responsive activation of GPR139 (GTPγS binding) (GPR139 [2]): specifically activate GPR139 in a dose-responsive manner; Potency in calcium mobilization relative to L-Trp and L-Phe (GPR139 [3]): higher potencies
N[C@@H](Cc1ccc(O)cc1)C(=O)O [Tyr],2752 and 2715 and 2921,2192 and 2191 and 2186,–
CC(C)[C@H](N)C(=O)O [Val],2632 and 2689 and 2533,2072 and 2083 and 1977,–
O=C(O)[C@@H]1C[C@@H](O)CN1 [HO-Pro],2825 and 2797 and 3109,2166 and 2152 and 2189,–
CC(C)C[C@H](N)C(=O)O [Leu],2621 and 2544 and 2437,2194 and 2213 and 2167,–
"NCCc1c[nH]cn1 [HA, histamine]",2737 and 2863 and 2899,2186 and 2204 and 2199,–
C[C@@H](O)[C@H](N)C(=O)O [Thr],2547 and 2507 and 2558,2210 and 2213 and 2008,–
N[C@@H](CC(=O)O)C(=O)O [Asp],2758 and 2922 and 2925,2177 and 2137 and 2132,–
CC(N)Cc1ccccc1 (centres unmarked) [Amphetamine],7242 and 6744 and 7263,2331 and 2132 and 2001,Dose-responsive activation of GPR139 (GTPγS binding) (mouse GPR139): specifically activate GPR139 in a dose-responsive manner; Activation of GPR139 in the GTPγS binding assay (GPR139 [1]): activated GPR139; Dose-responsive activation of GPR139 (GTPγS binding) (GPR139 [2]): specifically activate GPR139 in a dose-responsive manner
CNCC(O)c1ccc(O)c(O)c1 (centres unmarked) [Adrenaline],2721 and 2624 and 2670,2240 and 2117 and 2045,–
N[C@@H](CS)C(=O)O [Cys],2168 and 2458 and 2336,1928 and 2132 and 2114,–
CC[C@H](C)[C@H](N)C(=O)O [Ile],2760 and 2542 and 2903,2266 and 2222 and 2253,–
N[C@@H](CSSC[C@H](N)C(=O)O)C(=O)O [Cystine],2501 and 2652 and 2258,2242 and 2149 and 2229,–
N[C@@H](Cc1c[nH]cn1)C(=O)O [His],2640 and 2499,2308 and 2259 and 2197,–
NCCc1ccc(O)cc1 [Tyramine],2883 and 2932 and 2873,2132 and 2277 and 2369,–
NCCc1c[nH]c2ccccc12 [Tryptamine],6757 and 7686 and 7742,2025 and 2048 and 2088,Dose-responsive activation of GPR139 (GTPγS binding) (mouse GPR139): specifically activate GPR139 in a dose-responsive manner; Activation of GPR139 in the GTPγS binding assay (GPR139 [1]): activated GPR139; Dose-responsive activation of GPR139 (GTPγS binding) (GPR139 [2]): specifically activate GPR139 in a dose-responsive manner
